In US10800791B2, “Triazole ACC inhibitors and uses thereof” (Gilead Apollo, LLC, priority 2015, dated 2020) one finds IC90 and IC50 data, which are given here for seven molecules.

Assay [1] concerns Phytophthora capsici (Pc). The assay is described as follows: Growth inhibition assay of fungal pathogens, Pc. To be noted: 48 h. In kind it is cell-based. The procedure, abridged:
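Spore suspension in 17% V8 liquid media; cpd final 50/10/2 or 2/0.4/0.08 ppm, 2% DMSO. OD600 + visual, 24 & 48 h; % inhibition at 48 h vs 2% DMSO ctrl.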

A further assay has as its target human (hACC2) (Homo sapiens, UniProt O00763). The assay is described as follows: In vitro ACC inhibition assay (ADP-Glo), hACC2. It counts as biochemical. The settings on record: 5 nM ACC2, 20 μM ATP, 20 μM acetyl-CoA. The protocol:
The detailed procedure is as follows. […] 10 μL ADP glo reagent was added. […] 20 μL kinase detection reagent was added.
In general terms: In ADP-Glo the light output rises with the ADP produced.

[2] abbreviates: growth inhibition at 48 hours vs 2% DMSO control, read-out: Concentration at 90% Inhibition Pc.
[3] abbreviates: growth inhibition vs 2% DMSO control at 48 hours, read-out: Concentration at 90% Inhibition Pc.
[4] abbreviates: read-out: Concentration at 90% Inhibition Pc, Phytophthora capsici, growth inhibition at 48 hours vs 2% DMSO control.
Setting [5] is: read-out: Concentration at 90% Inhibition Pc, Phytophthora capsici, growth inhibition vs 2% DMSO control at 48 hours.

Converted amounts (≈) assume the structure as drawn. Read-outs that look alike come from different tables or passages of the source. Bounds are passed on as bounds.

human (hACC2), sequence (O00763 whole entry): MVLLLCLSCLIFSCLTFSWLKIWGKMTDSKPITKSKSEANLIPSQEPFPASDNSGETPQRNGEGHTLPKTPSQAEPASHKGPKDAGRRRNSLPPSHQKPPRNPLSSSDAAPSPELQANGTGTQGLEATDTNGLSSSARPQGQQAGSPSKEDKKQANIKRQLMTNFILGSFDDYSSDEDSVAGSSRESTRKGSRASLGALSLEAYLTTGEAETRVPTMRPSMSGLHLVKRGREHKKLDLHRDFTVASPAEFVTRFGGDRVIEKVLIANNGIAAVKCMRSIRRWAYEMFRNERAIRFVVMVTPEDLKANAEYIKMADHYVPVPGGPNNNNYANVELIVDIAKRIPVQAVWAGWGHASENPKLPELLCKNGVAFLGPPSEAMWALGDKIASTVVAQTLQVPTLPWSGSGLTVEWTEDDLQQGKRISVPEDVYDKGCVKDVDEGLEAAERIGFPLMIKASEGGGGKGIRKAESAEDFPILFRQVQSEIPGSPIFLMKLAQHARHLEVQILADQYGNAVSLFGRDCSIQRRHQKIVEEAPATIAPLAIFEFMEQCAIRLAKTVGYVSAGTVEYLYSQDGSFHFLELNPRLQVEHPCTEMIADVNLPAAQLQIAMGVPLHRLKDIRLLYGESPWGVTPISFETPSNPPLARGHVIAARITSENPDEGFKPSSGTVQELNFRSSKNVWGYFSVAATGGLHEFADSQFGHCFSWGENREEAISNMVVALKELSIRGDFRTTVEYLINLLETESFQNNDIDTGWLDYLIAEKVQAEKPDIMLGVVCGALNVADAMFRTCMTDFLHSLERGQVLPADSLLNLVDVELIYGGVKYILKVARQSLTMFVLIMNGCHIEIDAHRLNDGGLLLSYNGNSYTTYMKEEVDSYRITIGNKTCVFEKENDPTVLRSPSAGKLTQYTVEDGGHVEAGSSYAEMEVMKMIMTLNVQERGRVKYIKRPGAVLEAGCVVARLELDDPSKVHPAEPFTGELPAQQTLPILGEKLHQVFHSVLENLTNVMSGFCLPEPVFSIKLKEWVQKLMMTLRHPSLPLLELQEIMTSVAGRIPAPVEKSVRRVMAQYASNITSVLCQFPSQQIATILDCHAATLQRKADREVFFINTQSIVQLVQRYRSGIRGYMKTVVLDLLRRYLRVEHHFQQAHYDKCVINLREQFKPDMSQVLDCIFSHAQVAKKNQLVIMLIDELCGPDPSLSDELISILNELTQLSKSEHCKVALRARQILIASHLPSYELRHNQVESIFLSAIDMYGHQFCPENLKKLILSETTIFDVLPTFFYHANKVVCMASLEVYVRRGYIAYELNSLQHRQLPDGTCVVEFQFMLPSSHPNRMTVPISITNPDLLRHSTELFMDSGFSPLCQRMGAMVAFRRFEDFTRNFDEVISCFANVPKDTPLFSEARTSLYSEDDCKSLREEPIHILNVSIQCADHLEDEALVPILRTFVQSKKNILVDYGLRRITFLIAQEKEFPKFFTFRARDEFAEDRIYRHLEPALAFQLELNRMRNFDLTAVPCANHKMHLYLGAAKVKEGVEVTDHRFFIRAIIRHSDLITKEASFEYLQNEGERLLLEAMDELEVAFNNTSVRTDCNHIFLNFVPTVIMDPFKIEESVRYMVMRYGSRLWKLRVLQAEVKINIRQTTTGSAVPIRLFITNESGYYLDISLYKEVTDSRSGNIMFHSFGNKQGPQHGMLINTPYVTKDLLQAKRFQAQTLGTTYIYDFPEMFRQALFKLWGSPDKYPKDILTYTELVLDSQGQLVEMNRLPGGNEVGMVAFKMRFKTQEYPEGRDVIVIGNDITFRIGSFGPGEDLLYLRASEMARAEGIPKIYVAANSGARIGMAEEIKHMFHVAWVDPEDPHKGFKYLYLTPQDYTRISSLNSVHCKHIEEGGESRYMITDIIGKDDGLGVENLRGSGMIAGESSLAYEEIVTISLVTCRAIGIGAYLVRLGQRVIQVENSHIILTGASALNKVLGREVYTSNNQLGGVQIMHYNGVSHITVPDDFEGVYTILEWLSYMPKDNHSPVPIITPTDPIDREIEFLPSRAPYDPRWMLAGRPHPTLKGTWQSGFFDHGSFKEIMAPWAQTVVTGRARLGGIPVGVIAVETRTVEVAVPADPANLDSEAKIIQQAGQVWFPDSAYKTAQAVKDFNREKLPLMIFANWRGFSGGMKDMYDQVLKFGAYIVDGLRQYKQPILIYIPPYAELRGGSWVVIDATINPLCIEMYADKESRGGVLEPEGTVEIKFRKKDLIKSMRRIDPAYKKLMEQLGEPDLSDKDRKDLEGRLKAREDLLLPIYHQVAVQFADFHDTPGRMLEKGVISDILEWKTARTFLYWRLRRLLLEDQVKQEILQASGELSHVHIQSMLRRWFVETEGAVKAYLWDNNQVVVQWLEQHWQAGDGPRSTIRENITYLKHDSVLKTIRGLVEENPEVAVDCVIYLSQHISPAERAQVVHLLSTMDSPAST

What is called IC50 is the concentration that inhibits the measured activity by half. In the case of `COc1ccc(F)cc1[C@H](Cn1c(=O)n(CC(=O)N2CCCC2)c(=O)c2c(C)c(-n3nccn3)sc21)OCCO` [Compound I-81, (R)-1-(2-(5-fluoro-2-methoxyphenyl)-2-(2-hydroxy-ethoxy)ethyl)-5-methyl-3-(2-oxo-2-(pyrrolidin-1-yl)ethyl)-6-(2H-1,2,3-triazol-2-yl)thieno[2,3-d]pyrimidine-2,4(1H,3H)-dione], the IC90 in assay [1] (setting [2]) and in assay [1] (setting [3]) was over 50 µg/mL in each case. Also, the half-maximal inhibitory concentration (IC50) on human (hACC2) (Table 2a) was in the range of 5 to 10 nM; against human (hACC2) (Table 2b, additional results), 5 to 10 nM.
On to `COc1ccc(F)cc1[C@H](Cn1c(=O)n(CC(=O)NC(C)C)c(=O)c2c(C)c(-n3nccn3)sc21)OCCO` [Compound I-82, (R)-2-(1-(2-(5-fluoro-2-methoxyphenyl)-2-(2-hydroxy-ethoxy)ethyl)-5-methyl-2,4-dioxo-6-(2H-1,2,3-triazol-2-yl)-1,4-dihydro-thieno[2,3-d]pyrimidin-3(2H)-yl)-N-isopropylacetamide], for which the IC90 in assay [1] (setting [4]) and in assay [1] (setting [5]) was over 50 µg/mL in each case. The concentration for half-maximal inhibition (IC50) at human (hACC2) (Table 2a) is 1 to 5 nM; against human (hACC2) (Table 2b, additional results), 1 to 5 nM.
For `COc1ccc(F)cc1[C@H](Cn1c(=O)n([C@H](C)C(=O)NC2CCC2)c(=O)c2c(C)c(-n3nccn3)sc21)OCCO` [Compound I-84, (R)—N-cyclobutyl-2-(1-((R)-2-(5-fluoro-2-methoxyphenyl)-2-(2-hydroxyethoxy)ethyl)-5-methyl-2,4-dioxo-6-(2H-1,2,3-triazol-2-yl)-1,4-dihydrothieno[2,3-d]pyrimidin-3(2H)-yl)propanamide], the IC90 in assay [1] (setting [2]) and in assay [1] (setting [3]) was 2 µg/mL (≈ 3.41 µM) throughout. Further, the IC50 against human (hACC2) (Table 2a) lay in the range of 5 to 10 nM; at human (hACC2) (Table 2b, additional results), 5 to 10 nM.
For the molecule `COc1ccc(F)cc1[C@H](Cn1c(=O)n([C@H](C)C(=O)N(C)C(C)C)c(=O)c2c(C)c(-n3nccn3)sc21)OCCO` [Compound I-85, (R)-2-(1-((R)-2-(5-fluoro-2-methoxyphenyl)-2-(2-hydroxy-ethoxy)ethyl)-5-methyl-2,4-dioxo-6-(2H-1,2,3-triazol-2-yl)-1,4-dihydro-thieno[2,3-d]pyrimidin-3(2H)-yl)-N-isopropyl-N-methylpropanamide], the IC90 in assay [1] (setting [2]) and in assay [1] (setting [3]) was 2 µg/mL (≈ 3.4 µM) each time. In addition, the half-inhibitory concentration (IC50) is 10 to 40 nM against human (hACC2) (Table 2a) and 10 to 40 nM on human (hACC2) (Table 2b, additional results).
On to `COCCCO[C@@H](Cn1c(=O)n([C@@H](C)C(=O)NC(C)C)c(=O)c2c(C)c(-n3nccn3)sc21)c1cc(F)ccc1OC` [Compound I-86, (S)-2-(1-((R)-2-(5-fluoro-2-methoxyphenyl)-2-(3-methoxy-propoxy)ethyl)-5-methyl-2,4-dioxo-6-(2H-1,2,3-triazol-2-yl)-1,4-dihydrothieno[2,3-d]pyrimidin-3(2H)-yl)-N-isopropylpropanamide], for which the IC90 in assay [1] (setting [4]) and in assay [1] (setting [5]) was over 50 µg/mL in each case. The IC50 against human (hACC2) (Table 2a) was in the range of 10 to 40 nM; at human (hACC2) (Table 2b, additional results), 10 to 40 nM.
As for `COCCCO[C@@H](Cn1c(=O)n([C@H](C)C(=O)NC(C)C)c(=O)c2c(C)c(-n3nccn3)sc21)c1cc(F)ccc1OC` [Compound I-87, (R)-2-(1-((R)-2-(5-fluoro-2-methoxyphenyl)-2-(3-methoxy-propoxy)ethyl)-5-methyl-2,4-dioxo-6-(2H-1,2,3-triazol-2-yl)-1,4-dihydrothieno[2,3-d]pyrimidin-3(2H)-yl)-N-isopropylpropanamide], the IC90 in assay [1] (setting [2]) and in assay [1] (setting [3]) was over 50 µg/mL in each case. The half-inhibitory concentration (IC50) at human (hACC2) (Table 2a) was in the range of 5 to 10 nM; at human (hACC2) (Table 2b, additional results), 5 to 10 nM.
For `COc1ccc(F)cc1[C@H](Cn1c(=O)n([C@@H](C)C(=O)NC(C)C)c(=O)c2c(C)c(-n3nccn3)sc21)OCCO` [Compound I-88, (S)-2-(1-((R)-2-(5-fluoro-2-methoxyphenyl)-2-(2-hydroxyethoxy)ethyl)-5-methyl-2,4-dioxo-6-(2H-1,2,3-triazol-2-yl)-1,4-dihydro-thieno[2,3-d]pyrimidin-3(2H)-yl)-N-isopropylpropanamide], the IC90 in assay [1] (setting [4]) and in assay [1] (setting [5]) was 2 µg/mL (≈ 3.48 µM) each time. Moreover, the IC50 was in the range of 5 to 10 nM at human (hACC2) (Table 2a) and 5 to 10 nM against human (hACC2) (Table 2b, additional results).
